# Measurements: patent US9981907B2, “Low molecular weight cationic lipids for oligonucleotide delivery” (SIRNA THERAPEUTICS, INC., priority 2010, dated 2018)
# Columns and labels:
# [1] = system: mRNA transcript for the firefly (Photinus pyralis) luciferase gene; assay: Mouse in vivo evaluation of efficacy (luciferase siRNA LNP/RDV, liver luminescence); conditions: LSL-Luc transgenic mice, RDV with Luc siRNA tail vein injected, 0.1 to 0.5 mg/kg siRNA, imaged 48 hours post dose; compared with RDV containing octyl-CLinDMA (OCD); FIG. 1
# Method: LNPs utilizing Compound 1, in the nominal compositions described immediately above, were evaluated for in vivo efficacy. The siRNA targets the mRNA transcript for the firefly (Photinus pyralis) luciferase gene (Accession #M15077). […] The in vivo luciferase model employs a transgenic mouse in which the firefly luciferase coding sequence is present in all cells. ROSA26-LoxP-Stop-LoxP-Luc (LSL-Luc) transgenic mice licensed from the Dana Farber Cancer Institute are induced to express the Luciferase gene by first removing the LSL sequence with a recombinant Ad-Cre virus (Vector Biolabs). Due to the organo-tropic nature of the virus, expression is limited to the liver when delivered via tail vein injection. Luciferase expression levels in liver are quantitated by measuring light output, using an IVIS imager (Xenogen) following administration of the luciferin substrate (Caliper Life Sciences). Pre-dose luminescence levels are measured prior to administration of the RDVs. Luciferin in PBS (15 mg/mL) is intraperitoneally (IP) injected in a volume of 150 μL. After a four minute incubation period mice are anesthetized with isoflurane and placed in the IVIS imager. The RDVs (containing siRNA) in PBS vehicle were tail vein injected n a volume of 0.2 mL. […] In vivo efficacy results are expressed as % inhibition of luminescence relative to pre-dose luminescence levels. […]
# [2] = Rat in vivo toxicity (survival after LNP dosing); conditions: for Rats that failed to survive 48 hours: rats treated with 3 mg/kg
# Method: Six hours post dose, food is removed from the cages. Animal necropsy is performed 24 hours after LNP dosing. Rats are anesthetized under isoflurane for 5 minutes, then maintained under anesthesia by placing them in nose cones continuing the delivery of isoflurane until ex-sanguination is completed. Blood is collected from the vena cava using a 23 gauge butterfly venipuncture set and aliquoted to serum separator vacutainers for serum chemistry analysis. Punches of the excised caudate liver lobe are taken and placed in RNALater (Ambion) for mRNA analysis. Preserved liver tissue was homogenized and total RNA isolated using a Qiagen bead mill and the Qiagen miRNA-Easy RNA isolation kit following the manufacturer's instructions. Liver ApoB mRNA levels were determined by quantitative RT-PCR. Message was amplified from purified RNA utilizing a rat ApoB commercial probe set (Applied Biosystems Cat #RN01499054_m1). The PCR reaction was performed on an ABI 7500 instrument with a 96-well Fast Block. The ApoB mRNA level is normalized to the housekeeping PPIB (NM 011149) mRNA. PPIB mRNA levels were determined by RT-PCR using a commercial probe set (Applied Biosystems Cat. No. Mm00478295_m1). Results are expressed as a ratio of ApoB mRNA/PPIB mRNA. All mRNA data is expressed relative to the PBS control dose. Serum ALT and AST analysis were performed on the Siemens Advia 1800 Clinical Chemistry Analyzer utilizing the Siemens alanine aminotransferase (Cat #03039631) and aspartate aminotransferase (Cat #03039631) reagents. […] 3 out of 4 rats treated with 6 mg/kg Compound 2 survived at 48 hours post dose.
# [3] = Determination of cationic lipid levels in rat liver (LC/MS-MS); type: in vivo; conditions: rats dosed with RDV; compared with RDV containing DLinKC2DMA (Compound 4) or MC3 (Compound 3); FIG. 3
# Method: Liver tissue was weighed into 20-ml vials and homogenized in 9 v/w of water using a GenoGrinder 2000 (OPS Diagnostics, 1600 strokes/min, 5 min). A 50 μL aliquot of each tissue homogenate was mixed with 300 μL of extraction/protein precipitating solvent (50/50 acetonitrile/methanol containing 500 nM internal standard) and the plate was centrifuged to sediment precipitated protein. A volume of 200 μL of each supernatant was then transferred to separate wells of a 96-well plate and 10 μl samples were directly analyzed by LC/MS-MS.
# Standards were prepared by spiking known amounts of a methanol stock solution of compound into untreated rat liver homogenate (9 vol water/weight liver). Aliquots (50 μL) each standard/liver homogenate was mixed with 300 μL of extraction/protein precipitating solvent (50/50 acetonitrile/methanol containing 500 nM internal standard) and the plate was centrifuged to sediment precipitated protein. A volume of 200 μL of each supernatant was transferred to separate wells of a 96-well plate and 10 μl of each standard was directly analyzed by LC/MS-MS.
# Absolute quantification versus standards prepared and extracted from liver homogenate was performed using an Aria LX-2 HPLC system (Thermo Scientific) coupled to an API 4000 triple quadrupole mass spectrometer (Applied Biosystems). […]
compound,measurement,setting,value
"CCCCC/C=C\C/C=C\CCCCCCCCCC(CCCCCCCCC)OC(=O)CCCN(C)C (centres unmarked) [Compound 1, (20Z,23Z)-nonacosa-20,23-dien-10-yl 4-(dimethylamino)butanoate]","In vivo efficacy, % inhibition of luminescence relative to pre-dose luminescence levels",[1],Greater efficacy
"CCCCCCCC/C=C\CCCCCCCC(CCCCCCCCC)OC(=O)CCCN(C)C (centres unmarked) [Compound 2, (18Z)-heptacos-18-en-10-yl 4-(dimethylamino)butanoate]",Rats survived at 48 hours post dose,"[2]; female, Sprague-Dawley (Crl:CD(SD)), rat, in vivo, 6 mg/kg, 48 h",3 out of 4
same,Cationic lipid liver levels,[3],lower
"CCCCC/C=C\C/C=C\CCCCCCCCC(CCCCCCCC/C=C\C/C=C\CCCCC)OC(=O)CCCN(C)C [Compound 3, MC3]",Rats that failed to survive 48 hours,[2],2 out of 4
"CCCCC/C=C\C/C=C\CCCCCCCCC1(CCCCCCCC/C=C\C/C=C\CCCCC)OCC(CCN(C)C)O1 (centres unmarked) [Compound 4, DLinKC2DMA]",Rats that failed to survive 48 hours,[2],3 out of 4
